According to ChEMBL document CHEMBL1250514, “Fragment-based drug discovery applied to Hsp90. Discovery of two lead series with high ligand efficiency” (J Med Chem, 2010):

Biological target: Heat shock protein HSP90 (Homo sapiens, UniProt P07900+P08238)
Description: Binding affinity to human N-terminal ATPase domain of Hsp90 by isothermal titration calorimetry

Row | Compound | Kd
1 | Nc1nc(Cl)cc(-c2ccccc2)n1 | 2 µM
2 | COc1cccc(OC)c1-c1cc(Cl)nc(N)n1 | 0.068 µM
3 | COc1cccc(Cl)c1-c1cc(Cl)nc(N)n1 | 0.036 µM
4 | Nc1nc(Cl)cc(-c2ccccc2Cl)n1 | 0.083 µM
5 | Nc1nc(Cl)cc(-c2ccc(Cl)cc2Cl)n1 | 0.012 µM
6 | COc1ccc(Cl)c(-c2cc(Cl)nc(N)n2)c1 | 0.048 µM
7 | COc1cc(-c2cc(Cl)nc(N)n2)c(Cl)cc1Cl | 0.0063 µM
8 | COc1ccc(-c2cc(Cl)nc(N)n2)c(Cl)c1 | 0.028 µM
9 | CCN(CC)C(=O)c1ccc(O)c(Cl)c1 | 1130 µM
10 | CCc1cc(C(=O)N(CC)CC)ccc1O | 45 µM
11 | CCN(CC)C(=O)c1ccc(O)c(C(C)C)c1 | 7 µM
12 | CCN(CC)C(=O)c1ccc(O)c(C(C)(C)C)c1 | 8.6 µM
13 | CCN(CC)C(=O)c1cc(C(C)C)ccc1O | 51 µM
14 | CCN(CC)C(=O)c1cc(C(C)(C)C)ccc1O | 134 µM
15 | CC(C)(C)c1cc(C(=O)N2CCC(O)CC2)ccc1O | 2.3 µM
16 | CC(C)c1cc(C(=O)N2CCOCC2)ccc1O | 0.4 µM
17 | CC(C)c1cc(C(=O)N2CCOCC2)c(O)cc1O | 0.011 µM
18 | CC(=O)N1CCN(C(=O)c2ccc(O)c(C(C)(C)C)c2)CC1 | 2.5 µM
19 | CC(C)(C)c1cc(C(=O)N2CCN(c3ccccn3)CC2)ccc1O | 0.25 µM
20 | CC(C)(C)c1cc(C(=O)N2CCc3ccccc3C2)ccc1O | 2.5 µM
21 | CC(C)c1cc(C(=O)N2Cc3ccccc3C2)ccc1O | 0.068 µM
22 | CC(C)c1cc(C(=O)N2CCc3ccccc3C2)ccc1O | 0.128 µM
